# Assay results as given in patent publication US6583154B1, “Compounds and methods which modulate feeding behavior and related diseases” (Amgen Inc., priority 1998, dated 2003).
# Structures can show the parent of a compound that is named as a salt.
row,Structure (SMILES),melting point
1,"Cc1nc(N2CC=CC2)c2oc(-c3ccccc3)cc2n1 (as salt: hydrochloride) (hydrate or solvate) [Example 216c, 2-Methyl-6-phenyl-4-(3-pyrrolinyl)furano[3,2-d]pyrimidine Hydrochloride Hydrate]",279 to 280 °C
2,"Cc1nc(N2CCCCC2)c2sc(-c3ccc(F)cc3)cc2n1 (as salt: hydrochloride) (hydrate or solvate) [Example 217, 6-(4-Fluorophenyl)-2-methyl-4-piperidylthiopheno[3,2-d]pyrimidine Hydrochloride Hydrate]",285 to 287 °C
3,"Cc1nc(-n2cccn2)c2[nH]c(-c3ccccc3)cc2n1 (as salt: hydrochloride) (hydrate or solvate) [Example 218, 2-Methyl-6-phenyl-4-pyrazolypyrrolo[3,2-d]pyrimidine Hydrochloride Hydrate]",253 to 254 °C
4,"Cc1nc(N2C(C)C=CC2C)c2[nH]c(-c3ccccc3)cc2n1 (stereo not drawn) (as salt: hydrochloride) (hydrate or solvate) [Example 220, 4-(2,5-Dimethyl(3-pyrrolinyl)-2-methyl-6-phenylpyrrolo[3,2-d]pyrimidine Hydrochloride Hydrate]",242 to 243 °C
5,"Cc1nc(N2CCc3ccccc3C2)c2sc(-c3ccccc3)cc2n1 (as salt: hydrochloride) (hydrate or solvate) [Example 221b, 2-Methyl-6-phenyl-4-[2-1,2,3,4-tetrahydroisoquinolyl)thiopheno[3,2-d]pyrimidine Hydrochloride Hydrate]",263 to 265 °C
6,"Cc1nc(N2CCCCC2CCO)c2[nH]c(-c3ccccc3)cc2n1 (stereo not drawn) (as salt: hydrochloride) [Example 62, 2-Methyl-6-phenyl-4-(2-piperidineethanolyl)pyrrolo(3,2-d)pyrimidine Hydrochloride]",273 to 273.5 °C
7,"Cc1nc(N2CCOCC2)c2[nH]c(-c3ccc(F)c(F)c3)cc2n1 (as salt: hydrochloride) [Example 141, 4-[6-(3,4-Difluorophenyl)-2-methylpyrrolo[2,3-e]pyrimidin-4-yl]morpholine Hydrochloride]",> 280 °C
8,"Cc1nc(N2[C@H](C)CCC[C@@H]2C)c2[nH]c(-c3ccccc3)cc2n1 (as salt: hydrochloride) [Example 185, 4-((6S, 2R)-2,6-Dimethyl)-2-methyl-6-phenylpyrrolo[3,2-d]pyrimidine Hydrochloride]",> 270 °C
9,"c1ccc(-c2cc3nc(N4CCCCC4)nc(N4CCCCC4)c3[nH]2)cc1 (as salt: hydrochloride) [Example 208, 6-Phenyl-2,4-dipiperidylpyrrolo[3,2-d]pyrimidine Hydrochloride]",> 272 °C
10,Cc1nc(N2CCCCC2)c2[nH]c(-c3cc(F)ccc3F)cc2n1.Cl (hydrate or solvate),279 to 281 °C
11,Cc1nc(N2CCCCC2)c2[nH]c(-c3ccc(Cl)c(Cl)c3Cl)cc2n1.Cl (hydrate or solvate),264 to 266 °C
12,Cc1nc(N2CCCCC2)c2[nH]c(-c3cc(F)cc(F)c3)cc2n1.Cl (hydrate or solvate),> 280 °C
13,Cc1nc(N2CCCCC2)c2[nH]c(-c3ccc4c(c3)CCCC4)cc2n1.Cl (hydrate or solvate),175 to 177 °C
14,Cc1nc(N2CCCCC2)c2[nH]c(-c3sc(C)nc3C)cc2n1.Cl (hydrate or solvate),272 to 273.5 °C
15,Cc1nc(N2CCCCC2)c2[nH]c(-c3ccc(Cl)c(Cl)c3)c(C)c2n1.Cl (hydrate or solvate),> 280 °C
16,Cc1nc(N2CCCCC2)c2[nH]c(-c3cc(F)cc(F)c3)c(C)c2n1.Cl (hydrate or solvate),242 to 245 °C
17,Cc1nc(N2CCCCC2C)c2[nH]c(-c3ccc(F)cc3)cc2n1.Cl (stereo not drawn) (hydrate or solvate),274 to 276 °C

row,Structure (SMILES),melting point
1,Cc1nc(N2CCCCC2)c2[nH]c(-c3ccc(Cl)cc3)c(N3CCCC3)c2n1.Cl (hydrate or solvate),> 280 °C
2,Cc1nc(N2CCCCC2)c2[nH]c(CS(=O)(=O)c3ccc(Cl)cc3)cc2n1.Cl (hydrate or solvate),199 to 201 °C
3,COc1ccc(-c2c(C)[nH]c3c(N4CCCCC4)nc(C)nc23)cc1.Cl (hydrate or solvate),170 °C (dec.)
4,Cc1ccc2sc(-c3cc4nc(C)nc(N5CCCCC5)c4[nH]3)c(C)c2c1.Cl (hydrate or solvate),> 280 °C
5,COc1cccc2cc(-c3cc4nc(C)nc(N5CCCCC5)c4[nH]3)oc12.Cl (hydrate or solvate),> 280 °C
6,Cc1nc(N2CCCCC2)c2[nH]c(C)c(Oc3ccccc3)c2n1.Cl (hydrate or solvate),> 280 °C
7,Cc1nc(N2CCCCC2)c2[nH]c(C)c(Cc3ccccc3)c2n1.Cl (hydrate or solvate),> 240 °C (dec.)
8,Cc1nc(N2CCCCC2)c2[nH]c(-c3ccc4c(c3)OCO4)c(C)c2n1.Cl (hydrate or solvate),268 to 269 °C
9,Cc1nc2c3c(cc(-c4ccccc4)n3CC3CCCCN23)n1.Cl (stereo not drawn) (hydrate or solvate),> 280 °C
10,Cc1nc(N2CCN(S(=O)(=O)c3cccc4ccccc34)CC2)c2[nH]c(-c3ccccc3)cc2n1.Cl (hydrate or solvate),195 °C (dec.)
11,Cl.c1ccc(-c2cc3ncnc(N4CCCCC4)c3[nH]2)nc1 (hydrate or solvate),279 to 280 °C
12,Cc1nc(N2CCCCC2)c2[nH]c(-c3cnccn3)cc2n1.Cl (hydrate or solvate),280 to 283.5 °C
13,Cl.c1cnc(-c2cc3ncnc(N4CCCCC4)c3[nH]2)cn1 (hydrate or solvate),> 280 °C
14,Cl.c1ccc2oc(-c3cc4ncnc(N5CCCCC5)c4[nH]3)cc2c1 (hydrate or solvate),278.5 to 281 °C
15,Cl.c1ccc(-c2[nH]c3c(N4CCCCC4)ncnc3c2-c2ccccc2)cc1 (hydrate or solvate),266 to 268.5 °C
16,Cc1nc(N2CCCCC2)c2[nH]c(-c3cc(C)sc3C)cc2n1.Cl (hydrate or solvate),240 to 241.5 °C

# Results, then the compound that gave them:
row,melting point,Structure (SMILES)
1,> 300 °C,"Cc1nc(N2CCc3ccccc32)c2[nH]c(-c3ccccc3)cc2n1 (as salt: hydrochloride) (hydrate or solvate) [Example 215, 4-Indolinyl-2-methyl-6-phenylpyrrolo[3,2-d]pyrimidine Hydrochloride Hydrate]"
2,242 to 243 °C,"Cc1nc(N2CCN(S(=O)(=O)c3ccccc3)CC2)c2[nH]c(-c3ccccc3)cc2n1 (as salt: hydrochloride) (hydrate or solvate) [Example 227, 1-(2-Methyl-6-phenylpyrrolo[2,3-e]pyrimidin-4-yl(phenylsulfonyl)piperazine Hydrochloride Monohydrate]"
3,293 to 294 °C,"Cc1nc(N2CCCCC2)c2[nH]c(-c3ccccc3)cc2n1 (as salt: hydrochloride) [Example 35, 2-methyl-6-phenyl-4-(piperidinyl)pyrrolo[3,2-d]pyrimidine]"
4,278 to 279 °C,"Cc1nc(N2CC=CCC2)c2[nH]c(-c3ccccc3)cc2n1 (as salt: hydrochloride) [Example 65, 2-Methyl-6-phenyl-4-(1,2,3,6-tetrahydropyridinyl)pyrrolo[3,2-d]pyrimidine Hydrochloride]"
5,239 to 240 °C,"Cc1nc(N2CCCCC2)c2[nH]c(-c3ccccc3)c(Br)c2n1 (as salt: hydrochloride) [Example 211, 7-Bromo-2-methyl-6-phenyl-4-piperidylpyrrolo[3,2-d]pyrimidine Hydrochloride]"
6,> 280 °C,Cc1nc(N2CCCCC2)c2[nH]c(-c3ccc(-c4ccccc4)cc3)cc2n1.Cl (hydrate or solvate)
7,232 to 234.5 °C,Cc1nc(N2CCN(c3ccccc3)CC2)c2[nH]c(-c3ccccc3)cc2n1.Cl (hydrate or solvate)
8,> 280 °C,Cc1nc(N2CCCCC2)c2[nH]c(-c3c(F)cccc3F)cc2n1.Cl (hydrate or solvate)
9,240 to 241.5 °C,Cc1nc(N2CCCCC2)c2[nH]c(-c3ccccc3Cl)cc2n1.Cl (hydrate or solvate)
10,> 280 °C,Cc1nc(N2CCCCC2)c2[nH]c(-c3ccccc3C(F)(F)F)cc2n1.Cl (hydrate or solvate)
11,> 280 °C,Cc1nc(N2CCCCC2)c2[nH]c(-c3ccc(O)c(F)c3)cc2n1.Cl (hydrate or solvate)
12,> 280 °C,Cc1nc(N2CCCCC2)c2[nH]c(-c3cnn(-c4ccccc4)c3C)cc2n1.Cl (hydrate or solvate)
13,241 to 243 °C,COc1cccc(-c2cc3nc(C)nc(N4CCCCC4)c3[nH]2)c1.Cl (hydrate or solvate)
14,> 280 °C,Cc1nc(N2CCCCC2)c2[nH]c(-c3cccc(O)c3)cc2n1.Cl (hydrate or solvate)
15,261 to 263 °C,CCc1c(-c2ccccc2)[nH]c2c(N3CCCCC3)nc(C)nc12.Cl (hydrate or solvate)
16,> 280 °C,Cc1nc(N2CCCCC2)c2[nH]c(-c3ccc(-c4ccc(F)c(Cl)c4)o3)cc2n1.Cl (hydrate or solvate)
17,261 to 263 °C,COc1ccccc1-c1cc2nc(C)nc(N3CCCCC3)c2[nH]1.Cl (hydrate or solvate)
18,> 280 °C,Cc1nc(N2CCCCC2)c2[nH]c(-c3sc4ccccc4c3C)cc2n1.Cl (hydrate or solvate)
19,> 280 °C,Cc1nc(N2CCCCC2)c2[nH]c(-c3cccnc3)cc2n1.Cl (hydrate or solvate)
20,> 280 °C,Cc1nc(N2CCCCC2)c2[nH]c(-c3cc4ccccc4s3)cc2n1.Cl (hydrate or solvate)
21,281 to 283 °C (dec.),CSc1nc(N2CCCCC2)c2[nH]c(-c3ccccc3)cc2n1.Cl (hydrate or solvate)
22,> 300 °C (dec.),Cc1nc(N2CCC2)c2[nH]c(-c3ccccc3)cc2n1.Cl (hydrate or solvate)
23,169 to 171 °C,Cc1nc(N2CCCCC2)c2[nH]c(-c3ccccc3)c(-c3ccccc3)c2n1.Cl (hydrate or solvate)
24,235.1 to 237.5 °C (dec.),Cl.FC(F)(F)c1nc(N2CCCCC2)c2[nH]c(-c3ccccc3)cc2n1 (hydrate or solvate)
